Values quoted from earlier work as cited in US20240115670A1, “FIBROBLAST ACTIVATION PROTEIN MODULATION TO ALTER IMMUNE CELL MIGRATION AND TUMOR INFILTRATION” (Georgetown University, priority 2021, published 2024).

Assays:
[1] = system: advanced metastatic colorectal cancer; conditions: cited from earlier work
myeloma cells = conditions: coculture with osteoclasts; cited from earlier work
myeloma = conditions: in vivo; cited from earlier work
[2] = system: syngeneic tumors derived from fibrosarcoma, lymphoma, melanoma, mastocytoma, rhabdomyosarcoma and bladder cancer cell lines; conditions: oral administration; cited from earlier work
colon carcinoma = conditions: combination with oxaliplatin; cited from earlier work
[3] = system: primitive hematopoietic progenitor cells; conditions: by increasing G-CSF, IL-6, and IL-11 from bone marrow stromal cells; cited from earlier work
serum DPPIV = serum DPPIV (Homo sapiens, UniProt P27487); conditions: cited from earlier work
Chain of serum DPPIV (P27487 39-766 limits assumed): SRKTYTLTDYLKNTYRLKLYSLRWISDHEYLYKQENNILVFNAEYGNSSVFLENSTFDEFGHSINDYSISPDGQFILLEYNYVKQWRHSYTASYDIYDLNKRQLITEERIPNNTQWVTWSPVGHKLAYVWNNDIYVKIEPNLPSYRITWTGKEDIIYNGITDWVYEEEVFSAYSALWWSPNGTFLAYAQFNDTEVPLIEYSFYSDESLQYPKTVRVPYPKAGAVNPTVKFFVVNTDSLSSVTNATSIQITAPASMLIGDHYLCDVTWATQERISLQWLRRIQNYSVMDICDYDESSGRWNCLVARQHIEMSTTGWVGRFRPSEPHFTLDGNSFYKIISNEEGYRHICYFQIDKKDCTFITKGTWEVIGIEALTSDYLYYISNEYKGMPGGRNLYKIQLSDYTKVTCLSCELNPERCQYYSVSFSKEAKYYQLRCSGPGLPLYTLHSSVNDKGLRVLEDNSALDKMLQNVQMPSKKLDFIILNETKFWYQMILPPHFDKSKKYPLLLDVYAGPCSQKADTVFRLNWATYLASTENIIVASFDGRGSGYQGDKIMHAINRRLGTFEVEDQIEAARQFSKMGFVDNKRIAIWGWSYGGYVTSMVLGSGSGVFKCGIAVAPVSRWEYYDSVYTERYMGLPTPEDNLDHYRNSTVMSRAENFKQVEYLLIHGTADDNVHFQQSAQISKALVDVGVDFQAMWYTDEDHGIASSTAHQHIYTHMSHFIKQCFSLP

stage IV melanoma = conditions: cited from earlier work
[4] = system: advanced non-small cell lung cancer; conditions: cited from earlier work
CAF = conditions: via downregulation of FAP; cited from earlier work
gastric cancer = conditions: via downregulation of FAP; cited from earlier work
[5] = system: advanced or metastatic FAP+ cancer; conditions: cited from earlier work
[6] = system: metastatic colorectal cancer; conditions: cited from earlier work

## CC(C)[C@H](N)C(=O)N1CCC[C@H]1B(O)O [talabostat, Talabostat]
[1]; single agent trial, acute renal failure due to cytokine storm
  Grade 5 adverse events: one
[1]; single agent
  clinical responses: no complete or partial responses
Myeloma cells
  myeloma cell proliferation: concentration-dependent decreased
myeloma
  osteoclast activity, bone resorption and tumor burden: reduced
[2]
  growth of syngeneic tumors: slowed growth
Colon carcinoma
  efficacy of oxaliplatin: enhanced
[3]
  growth of primitive hematopoietic progenitor cells: promoted growth
Serum DPPIV; dose of 600 ug/m2, at 24 hours
  serum DPPIV inhibition: 85%
Serum DPPIV; phase I, pediatric solid tumors
  dose-limiting toxicities: No dose-limiting toxicities were observed
Stage IV melanoma; in vivo
  patients discontinuing talabostat due to side effects: 18%
  patients with grade 3 or 4 adverse events: 56%
Stage IV melanoma; with cisplatin, second-line
  patients with partial response: 8.1%
  patients with stable disease: 62.5%
[4]; none considered definitely or probably related to talabostat
  patients with adverse events resulting in death: eight
[4]; with docetaxel
  durable complete responses: two
  overall response rate: 9.1%
  partial responses: three
  stable disease rate: 54%

## polyphyllin
CAF
  CAF proliferation in vitro: decreased
Gastric cancer
  tumor growth in vivo: decreased

## sibrotuzumab: humanized monoclonal anti-FAP antibody
[5]; in vivo
  dose limiting toxicity: one
[5]; phase I
  clinical responses: no clinical responses
  patients with stable disease: 2/26
[6]; in vivo
  tolerability: well tolerated
[6]; phase II, trial suspended
  clinical activity: lack of clinical activity
